Data taken from paper PMC12337087 (Phytotherapy Research, 2025).
pKd: −log10 of the molar value.

Molecular target: Phosphoglycerate mutase 1 (PGAM1) (Homo sapiens, UniProt P18669)
Test: SPR
Type: binding

Chain of Phosphoglycerate mutase 1 (PGAM1) (P18669 2-254): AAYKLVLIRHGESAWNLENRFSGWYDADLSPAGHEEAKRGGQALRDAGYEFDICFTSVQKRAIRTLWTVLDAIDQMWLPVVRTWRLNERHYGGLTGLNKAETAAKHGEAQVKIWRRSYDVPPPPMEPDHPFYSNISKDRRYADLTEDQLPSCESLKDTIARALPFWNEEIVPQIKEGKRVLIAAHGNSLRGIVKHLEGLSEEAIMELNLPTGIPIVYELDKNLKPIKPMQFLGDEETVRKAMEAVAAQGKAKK

With `Cc1cccc2c3c(ccc12)C1=C(C(=O)C3=O)[C@@H](C)CO1` [DHT, Dihydrotanshinone I] the pKd was 6.16.
